Marks after values point to notes of the source that are not given here.
System: chicken embryos
Assay: Metabolic profiling of allantoic fluid (GC-MS, LC-MS, OPLS-DA)
Assay type: in vivo, Gallus gallus domesticus
Conditions: 150 μg/egg
Protocol: Controls were injected with 20 μL vehicle only (DMSO).
Plasma was collected and stored at -70°C.
Metabolites in allantoic fluid and blood plasma were analyzed using gas chromatography-mass spectrometry (GC-MS) and liquid chromatography-mass spectrometry (LC-MS) as described in S1 Methods. Prior to GC-MS and LC-MS analysis, allantoic fluid (100 μL) and blood plasma (50 μL) were extracted. To each sample, 900 μL (allantoic fluid) or 450 μL (blood plasma) of extraction buffer (90/10 v/v methanol:water) including all internal standards were added. Standards for GC-MS were proline, succinic acid, glutamic acid, salicylic acid, alpha-ketoglutarate, putrescine, myristic acid, hexadecanoic acid, cholesterol, and sucrose. Standards for LC-MS were Val-Tyr-Val, Leu-enkephalin, sulfadimethoxine and reserpine. Samples were homogenized by shaking in a bead mill at a frequency of 30 Hz for 3 minutes and proteins were precipitated at +4°C on ice. The samples were centrifuged at +4°C, 14000 rpm, for 10 min. Then, 200 μL supernatant was transferred to a GC microvial and 200 μL was transferred to an LC microvial, and solvents were evaporated. Samples from the four replicate experiments were analyzed using in chronological order and within each replicate experiment the run order of the individual samples was randomized.
Multivariate statistical analyses of metabolite profiles were performed using the software package SIMCA-P version 13.0 (Umetrics, Umeå, Sweden). Data was centered and scaled to variance 1 (UV scaling) prior to modelling. To reduce unintended systematic variation caused by sample processing and instrument drift, GC-MS and LC-MS metabolite amounts (expressed as the area under the chromatographic peak) were normalized by Orthogonal Partial Least Squares analysis (O2PLS) prior to multivariate data analysis. O2PLS finds common (predictive) and unique (orthogonal) variation in two data matrices. If applied to find the common variation between the data matrix containing the measured metabolite concentrations and a matrix containing only the internal standards, the only common (predictive) variation expected is due to the unintended systematic variation. By deleting the contribution of the predictive latent variables, that variation can be removed from the data. Models obtained after this normalization contain in general less latent variables, and this simplification helps when deciding on the number of latent variables to be used. Following normalization, GC-MS and LC-MS data were analyzed together. Initially, a global Principal Component Analysis (PCA) was performed to get an overview of groups and trends and to identify outliers. Projections to latent structures by means of Orthogonal Partial Least Squares Discriminant Analysis (OPLS-DA) was used to model the relationship between the X-matrix (metabolite concentrations) and the Y matrix (class, i.e. exposure group or sex), and to find x-variables that were related to class belonging. OPLS-DA is a supervised prediction and regression method that rotates the projection plane to find the maximum covariance between the data and the class assignment. All groups were first analyzed together in a 5-class OPLS-DA and then each exposure group was analyzed against the control group in a 2-class OPLS-DA. Sex differences were analyzed both using the whole data set and in each group separately using 2-class OPLS-DA, with females and males as the two classes. Only variables with 80% or more nonzero values were included in the statistical models. […] The validity of each model was also checked using CV-ANOVA (ANOVA of the cross-validated residuals). A significance level of p < 0.05 was used. For each model, R ^2 X, R ^2 Y and Q ^2 values were calculated, where R ^2 X is a measure of the fraction of x variation modeled in the extracted latent variables, R ^2 Y is a measure of the fraction of y variation modeled and Q ^2 is an estimate of the predictive ability of the model and is calculated by cross-validation. […]

[1] = GC, tentative 2-Oxovaleric acid

CN(CCOc1ccc(CC2SC(=O)NC2=O)cc1)c1ccccn1 (centres unmarked) [Rosiglitazone, rosiglitazone, reference compound]
Mean concentration relative to control, feature Win004_C08 (GC): 1.2** | Mean concentration relative to control, feature Win005_C07 (GC): 1.2* | Mean concentration relative to control, feature Win008_C06 (GC): 1.7*** | Mean concentration relative to control, feature Win022_C01 (GC): 2.2*** | Mean concentration relative to control, feature Win023_C06 (GC): 1.8* | Mean concentration relative to control, feature win006_C01 (GC): 2.3*** | Mean concentration relative to control, feature Win008_C07 (GC, tentative 1-Aminocyclopropanecarboxylic acid): 1.1 | Mean concentration relative to control, feature Win023_C03 (GC, tentative 2-Oxoglutaric acid): 2.5*** | Mean concentration relative to control, feature Win007_C09 [1]: 1.3*** | Mean concentration relative to control, feature Win008_C05 [1]: 1.4*** | Mean concentration relative to control, feature Win018_C04 (GC, tentative 3-Amino-2-piperidone): 1 | Mean concentration relative to control, feature Win007_C03 (GC, tentative 3-Hydroxybutanoic acid): 1.0 | Mean concentration relative to control, feature Win042_C02 (GC, tentative Cystathionine): 1.1 | Mean concentration relative to control, feature Win009_C03 (GC, tentative Ketoleucine): 1.3** | Mean concentration relative to control, feature Win008_C04 (GC, tentative Malonic acid): 1.0 | Mean concentration relative to control, feature Win005_C03 (GC, tentative Oxalic acid): 0.7** | Mean concentration relative to control, feature Win013_C05 (GC, tentative Succinic acid): 1.1* | Mean concentration relative to control, feature 134.0239@1.1350567 (LC): 1.4* | Mean concentration relative to control, feature 145.0538@3.072527 (LC): 1.2 | Mean concentration relative to control, feature 147.0328@3.0722888 (LC): 1.2 | Mean concentration relative to control, feature 160.0323@1.1950632 (LC): 1.2*** | Mean concentration relative to control, feature 173.0488@3.0734746 (LC): 1.2 | Mean concentration relative to control, feature 176.0952@1.3890611 (LC): 0.4* | Mean concentration relative to control, feature 178.0428@1.7582192 (LC): 1.3** | Mean concentration relative to control, feature 180.0048@4.421465 (LC): 0.9*** | Mean concentration relative to control, feature 189.1159@1.9209185 (LC): 0.7** | Mean concentration relative to control, feature 197.0639@2.1181405 (LC): 1.2*** | Mean concentration relative to control, feature 201.012@3.046474 (LC): 1.1 | Mean concentration relative to control, feature 202.0429@2.9548414 (LC): 1.3*** | Mean concentration relative to control, feature 205.0533@4.421879 (LC): 0.9*** | Mean concentration relative to control, feature 214.016@2.1190732 (LC): 1.2** | Mean concentration relative to control, feature 226.0107@4.421457 (LC): 0.9*** | Mean concentration relative to control, feature 236.0816@3.0720985 (LC): 1.2 | Mean concentration relative to control, feature 241.0551@2.3510706 (LC): 1.3*** | Mean concentration relative to control, feature 243.1118@2.1537287 (LC): 0.7*** | Mean concentration relative to control, feature 244.9972@4.421603 (LC): 0.96* | Mean concentration relative to control, feature 245.1563@2.2907295 (LC): 0.7* | Mean concentration relative to control, feature 250.0981@3.072492 (LC): 1.2 | Mean concentration relative to control, feature 262.0978@2.7961144 (LC): 1.3* | Mean concentration relative to control, feature 263.0855@2.2847009 (LC): 1.4** | Mean concentration relative to control, feature 270.0441@1.1407775 (LC): 0.7* | Mean concentration relative to control, feature 278.0928@3.0723689 (LC): 1.2 | Mean concentration relative to control, feature 279.1248@2.796395 (LC): 1.4* | Mean concentration relative to control, feature 280.1425@2.730277 (LC): 1.1** | Mean concentration relative to control, feature 288.1166@2.9551322 (LC): 1.7** | Mean concentration relative to control, feature 289.1012@3.249983 (LC): 1.2 | Mean concentration relative to control, feature 289.173@7.5030584 (LC): 0.7*** | Mean concentration relative to control, feature 294.1242@2.3692534 (LC): 0.7*** | Mean concentration relative to control, feature 302.0508@3.0722616 (LC): 1.1 | Mean concentration relative to control, feature 305.1682@5.353517 (LC): 1.2 | Mean concentration relative to control, feature 305.1684@5.2955093 (LC): 1.2 | Mean concentration relative to control, feature 308.073@4.4211636 (LC): 0.9*** | Mean concentration relative to control, feature 310.1181@1.5090439 (LC): 0.7*** | Mean concentration relative to control, feature 316.0389@3.0725708 (LC): 1.2 | Mean concentration relative to control, feature 320.0626@3.0729218 (LC): 1.1 | Mean concentration relative to control, feature 325.1114@2.1190624 (LC): 1.6*** | Mean concentration relative to control, feature 325.1115@2.3554378 (LC): 1.5** | Mean concentration relative to control, feature 333.1335@2.8639288 (LC): 0.7*** | Mean concentration relative to control, feature 333.2005@6.5291867 (LC): 1.1 | Mean concentration relative to control, feature 335.1866@4.508565 (LC): 0.7*** | Mean concentration relative to control, feature 337.1651@1.8737898 (LC): 1.6*** | Mean concentration relative to control, feature 344.1424@2.348947 (LC): 1.5** | Mean concentration relative to control, feature 348.0553@3.0730357 (LC): 1.1 | Mean concentration relative to control, feature 349.1651@2.4087605 (LC): 1 | Mean concentration relative to control, feature 357.1997@6.9691257 (LC): 0.8* | Mean concentration relative to control, feature 371.1513@3.0009465 (LC): 1.4** | Mean concentration relative to control, feature 375.1819@3.672254 (LC): 0.9 | Mean concentration relative to control, feature 394.167@3.9552917 (LC): 0.7* | Mean concentration relative to control, feature 414.1482@2.118972 (LC): 1.5*** | Mean concentration relative to control, feature 466.0837@2.1187525 (LC): 1.5*** | Mean concentration relative to control, feature 488.0753@4.419585 (LC): 0.8*** | Mean concentration relative to control, feature 498.1003@2.1184251 (LC): 1.4*** | Mean concentration relative to control, feature 507.1682@2.1238236 (LC): 1.3* | Mean concentration relative to control, feature 580.1426@3.0726147 (LC): 1.3 | Mean concentration relative to control, feature 582.1578@2.1747615 (LC): 1.8*** | Mean concentration relative to control, feature 588.1751@2.1182237 (LC): 1.5*** | Mean concentration relative to control, feature 594.1337@3.0724604 (LC): 1.3 | Mean concentration relative to control, feature 604.1486@2.1174603 (LC): 1.5*** | Mean concentration relative to control, feature 623.183@2.1249466 (LC): 1.8*** | Mean concentration relative to control, feature 668.2625@6.4379454 (LC): 1.04** | Mean concentration relative to control, feature 155.0353@0.6447272 (LC, suggested C3H10NO4P): 0.4* | Mean concentration relative to control, feature 345.0497@1.1234403 (LC, suggested C10H12N5O7P): 1.6*** | Mean concentration relative to control, feature 337.0259@4.4213357 (LC, suggested C13H11N3O4S2): 0.9*** | Mean concentration relative to control, feature 344.1427@2.1164653 (LC, suggested C13H20N4O7): 1.6*** | Mean concentration relative to control, feature 331.184@6.373359 (LC, suggested C13H25N5O5): 1 | Mean concentration relative to control, feature 361.2026@5.6644735 (LC, suggested C16H31N3O4S): 0.7**

— PMC4666608, “Metabolic Profiling of Chicken Embryos Exposed to Perfluorooctanoic Acid (PFOA) and Agonists to Peroxisome Proliferator-Activated Receptors” (PLoS ONE, 2015)
